Tested on: subjects suffering from LCI
Test: Sensory electrophysiological responses (P50 gating, MMN, P300, N100) in LCI subjects
Assay type: in vivo, human
Conditions: compared with placebo, effects expected at a daily dose as low as 0.3 mg, dosed daily for 20 days
Method: These effects are expected at a daily dose as low as 0.3 mg of (R)-7-chloro-N-(quinuclidin-3-yl)benzo[b]thiophene-2-carboxamide hydrochloride.
Impairment of the ability of central nervous system to inhibit irrelevant sensory information has long been used as a model for understanding the deficits of attention seen in subjects. Two approaches to the measurement of this ability have commonly been employed (see (Heinrichs, 2004; Potter et al., 2006; Turetsky et al., 2007; Umbricht and Krljes, 2005) for reviews and meta-analyses): (1) the sensory gating paradigm in which the presentation of one stimulus normally suppresses the response elicited by a stimulus which rapidly follows it; and (2) the oddball or orienting paradigm in which a rare or unexpected event elicits a diminished response in subjects because attentional resources are inappropriately focused on less salient aspects of the environment.
Two responses are commonly used assess brain activity: (1) the auditory P50 response elicited by the second member of a pair of clicks; and (2) the mismatch negativity (MMN) or N2 response evoked by a rarely occurring pure tone of no instructed relevance to the subject. Abnormalities in both P50 gating and the MMN have been reported in schizophrenic subjects. […]

SMILES: Cl.O=C(N[C@H]1CN2CCC1CC2)c1cc2cccc(Cl)c2s1 [(R)-7-chloro-N-(quinuclidin-3-yl)benzo[b]thiophene-2-carboxamide hydrochloride]
- sensory electrophysiological responses which correlate with improved cognitive and functional performance: can improve sensory electrophysiological responses

Reference: patent US20140163067A1, “Methods of Treatment of Limited Cognitive Impairment” (ENVIVO PHARMACEUTICALS, INC., priority 2011, published 2014)
